Broadly, the IC50 is the concentration that inhibits the measured activity by half. As usually defined, the ED50 is the midpoint of the dose-response relation. A high value points to weaker potency. One may read the inhibition as the relative decrease from the control value, in per cent. Usually inhibition in vivo stands for the share of the control response that was lost under treatment. Low values mean a response near the control, high ones a response far below the control.

Experiment [1] deals with Cannabinoid receptor (Rattus norvegicus, UniProt Q9QZN9+P20272). In words: Concentration required to displace 50% of 0.5 nM [3H](aminoalkyl)indole binding to cannabinoid receptor in rat cerebellum membranes. The experiment is classed as cell membranes, Membrane.
The species entered for experiment [2] is Mus musculus. In words: In vitro inhibition of electrically stimulated contractions of isolated mouse vas deferens. The experiment is classed as functional.
Experiment [3] has as its system Mus musculus. Put plainly: In vivo antinociceptive effect was tested in the mouse acetylcholine writhing assay after po administration. Format: functional.
The target in experiment [4] is Cannabinoid receptor (Rattus norvegicus) (UniProt Q9QZN9+P20272). The settings on record: Cerebellum; Membrane; at 1 µM.
Sequence of Cannabinoid receptor (Rattus norvegicus) (P20272 whole entry, looked up): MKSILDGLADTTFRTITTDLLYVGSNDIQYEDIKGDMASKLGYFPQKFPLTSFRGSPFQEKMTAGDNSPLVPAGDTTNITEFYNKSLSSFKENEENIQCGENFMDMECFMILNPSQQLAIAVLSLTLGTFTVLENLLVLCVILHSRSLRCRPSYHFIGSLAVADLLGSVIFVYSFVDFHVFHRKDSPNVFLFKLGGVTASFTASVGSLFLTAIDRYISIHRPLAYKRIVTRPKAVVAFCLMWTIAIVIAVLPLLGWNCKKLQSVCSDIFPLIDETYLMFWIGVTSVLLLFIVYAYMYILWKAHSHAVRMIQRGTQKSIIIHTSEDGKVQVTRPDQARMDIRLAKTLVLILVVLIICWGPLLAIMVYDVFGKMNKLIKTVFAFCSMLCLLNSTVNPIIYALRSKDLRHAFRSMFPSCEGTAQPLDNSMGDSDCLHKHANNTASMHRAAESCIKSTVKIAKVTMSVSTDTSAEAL
Sequence of Cannabinoid receptor (Rattus norvegicus) (Q9QZN9 whole entry, looked up): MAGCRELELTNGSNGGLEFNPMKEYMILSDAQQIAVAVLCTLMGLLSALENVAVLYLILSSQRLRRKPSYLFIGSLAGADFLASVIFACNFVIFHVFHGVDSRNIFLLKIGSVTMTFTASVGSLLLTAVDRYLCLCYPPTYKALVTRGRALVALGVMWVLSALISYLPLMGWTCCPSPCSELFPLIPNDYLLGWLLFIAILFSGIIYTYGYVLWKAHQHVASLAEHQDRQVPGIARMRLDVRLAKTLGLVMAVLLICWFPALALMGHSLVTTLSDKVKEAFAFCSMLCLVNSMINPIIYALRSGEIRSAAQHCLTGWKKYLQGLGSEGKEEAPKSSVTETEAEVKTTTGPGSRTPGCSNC
Description: Inhibition of 0.5 nM [3H](Aminoalkyl)indole binding to cannabinoid receptor in rat cerebellum membranes at 1 uM
Experiment [5] is filed under the species Mus musculus. Put plainly: Inhibitory activity against PG synthesis was measured in mouse brain microsomes. The experiment is classed as functional.
Experiment [6] deals with Mus musculus. Put plainly: In Vivo antinociceptive effect was tested in the mouse acetylcholine writhing assay after 100 mg/kg po administration. Format: functional. In general terms: An intraperitoneal irritant provokes the stretching counted in writhing tests.
For experiment [7], the system named is Mus musculus. In words: (§1) in vivo antinociceptive effect was tested in the mouse acetylcholine writhing assay after iv administration. The experiment is classed as functional, organism-based.
The species entered for experiment [8] is Mus musculus. In words: In vitro inhibition of electrically stimulatedcontradions was measured on isolated mouse vas deferens at 10 uM. Format: functional.
Experiment [9] concerns Mus musculus. The experiment is described as §1. Format: functional.
The species named for experiment [10] is Mus musculus. In words: Inhibitory activity against PG synthesis was measured in mouse brain microsomes at 30 uM. Format: functional.
Experiment [11] relates to Mus musculus. In words: In vivo antinociceptive effect was tested in the mouse acetylcholine writhing assay after 100 mg/kg po administration. The experiment is classed as functional.

With `COc1ccc(C(=O)c2c3n(c4ccccc24)C(CN2CCOCC2)CC3)cc1` (centres undefined), the IC50 in experiment [1] was 3053 nM; in experiment [2] (Mus musculus), 320 nM.
Turning to `Cc1c(C(=O)c2cccc3ccccc23)c2cccc3c2n1[C@H](CN1CCOCC1)CO3` (stereo in doubt; 21) [WIN-552122], in [2], the IC50 was 6 nM.
As for `Cc1c(C(=O)c2ccc(Br)c3ccccc23)c2cccc3c2n1C(CN1CCOCC1)CO3` (centres undefined), the IC50 turned out to be 2.32 nM in experiment [1] and 2.2 nM in [2] (Mus musculus).
Consider `Cc1c(C(=O)c2cccc3c(Br)cc(Br)cc23)c2cccc3c2n1[C@H](CN1CCOCC1)CO3`, for which, in experiment [1], the 50% inhibitory concentration (IC50) is reported as 48.3 nM.
For `COc1ccc(C(=O)c2cn3c4c(cccc24)OCC3CN2CCOCC2)cc1` (centres undefined), the IC50 is 249 nM in experiment [1] and 45.5 nM in [2] (Mus musculus). The molecule also displayed a median effective dose (ED50) in experiment [3] of 2 mg/kg. In addition, in [4], the inhibition was -9%.
As to `COc1ccc2c(c1)c(CC(=O)O)c(C)n2C(=O)c1ccc(Cl)cc1` [INDOMETHACIN], the IC50 was 500 nM in [5] and above 10000 nM in [2] (Mus musculus).
`COc1ccc(C(=O)c2c(C)n3c4c(cccc24)OC[C@@H]3CN2CCOCC2)cc1`: the IC50 in experiment [1] is 17500 nM; in experiment [5] it was 30000 nM; in experiment [2] (Mus musculus) it was above 10000 nM.
Take `Cc1c(C(=O)c2cccc3ccccc23)c2cccc3c2n1[C@@H](CN1CCOCC1)CO3`: the IC50 in experiment [5] was 10000 nM; in experiment [2] (Mus musculus), above 10000 nM. The molecule also registered an inhibition in vivo at 100 mg/kg in experiment [6] of 10%.
`C[C@H](CCCc1ccccc1)Oc1cc(O)c2c(c1)N[C@@H](C)[C@@H]1CC[C@@H](O)C[C@@H]21`: the concentration for half-maximal inhibition (IC50) turned out to be 0.46 nM in experiment [1] and 2.3 nM in experiment [2] (Mus musculus).
Consider `COc1ccc(C(=O)c2c(C)n3c4c(cccc24)OCC3CN2CCOCC2)cc1` (centres undefined), for which the IC50 in experiment [1] came to 152 nM; in experiment [5], 72000 nM; in [2] (Mus musculus) it was 123 nM; in experiment [7] it was 4000 nM. In experiment [6], 100 mg/kg produced 30% inhibition in vivo.
`Cc1c(C(=O)c2ccc3ncccc3c2)c2cccc3c2n1C(CN1CCOCC1)CO3` (centres undefined): the 50% inhibitory concentration (IC50) in experiment [1] was determined as 132.5 nM; in experiment [5] it was 26000 nM; in [2] (Mus musculus), 21 nM.
Turning to `COc1ccc(C(=O)c2c(C)n3c4c(cccc24)OC[C@H]3CN2CCOCC2)cc1`, the IC50 in experiment [1] is 106 nM; in [5], 50000 nM; in experiment [2] (Mus musculus), 44 nM.
As to `CCc1c(C(=O)c2ccc(OC)cc2)c2cccc3c2n1C(CN1CCOCC1)CO3` (centres undefined), the inhibition in experiment [4] is 27%. Also, in experiment [8], the inhibition at 10 µM is 28%.
In the case of `Cc1c(C(=O)c2cccc3ccccc23)c2cccc3c2n1[C@H](CN1CCOCC1)CO3` (stereo in doubt) [WIN-552122], the results for the IC50 in [5] and in experiment [2] were 9000 nM and 0.43 nM, respectively.
As for `COc1ccc(C(=O)c2c(C)n(CCN3CCOCC3)c3ccccc23)cc1` [PRAVADOLINE], the IC50 in experiment [1] was found to be 3155 nM; in [5], 5000 nM; in experiment [2] (Mus musculus) it was 453 nM. The ED50 in experiment [3] turned out to be 26 mg/kg; in [9] it was 4 mg/kg.
For the molecule `COc1ccc(C(=O)c2c3n(c4ccccc24)CC(N2CCOCC2)C3)cc1` (centres undefined), the IC50 in experiment [2] (Mus musculus) was above 10000 nM. The inhibition in experiment [10] is 18%.
Consider `O=C(c1cccc2ccccc12)c1cn2c3c(cccc13)OCC2CN1CCOCC1` (centres undefined), for which the results for the IC50 in [1] and in experiment [2] (Mus musculus) were 7.37 nM and 2 nM, respectively.
In [3], `COc1ccc(C(=O)c2c3n(c4ccccc24)CCC3N2CCOCC2)cc1` (centres undefined) gave an ED50 of 91 mg/kg. For the same molecule, the IC50 in experiment [2] (Mus musculus) is above 10000 nM. For the same molecule, the inhibition in experiment [10] was found to be 49%.
`Cc1c(C(=O)c2ccccc2F)c2cccc3c2n1C(CN1CCOCC1)CO3` (centres undefined): the values for the IC50 in [1], in experiment [5] and in experiment [2] (Mus musculus) were 1426 nM, 42000 nM and 76 nM, respectively.
In the case of `COc1ccc(C(=O)c2c(C)n3c4c(cccc24)CC(N2CCOCC2)C3)cc1` (centres undefined), in experiment [11], the inhibition in vivo at 100 mg/kg stood at 30%. The values for the inhibition in experiment [4] and in experiment [10] were 1.4% and 12%, respectively. The IC50 in experiment [2] (Mus musculus) is above 10000 nM.

Source of the values: ChEMBL document CHEMBL1126010, “Conformationally restrained analogues of pravadoline: nanomolar potent, enantioselective, (aminoalkyl)indole agonists of the cannabinoid receptor” (J Med Chem, 1992).
